In data set [1] the target is T1, Voltage-gated inwardly rectifying potassium channel KCNH2 (Homo sapiens, UniProt Q12809).
Description: Inhibition of human ERG expressed in HEK293 cells by Q-patch assay
A further data set is described as follows: physchem. The conditions noted are these: buffer, pH 7.4, logD.
The target of data set [2] is T1, Voltage-gated inwardly rectifying potassium channel KCNH2. The source holds these as a separate data set.
Description: Inhibition of human ERG expressed in HEK293 cells by Barracuda automated patch clamp assay
A short description of data set [3]: Protein binding in human blood at 1 ug/ml after 4 hrs by LC-MS/MS analysis. The class given is ADME, tissue-based. To be noted: at 1 µg/mL, read-out: PB (converted).

T1 sequence (Q12809 whole entry): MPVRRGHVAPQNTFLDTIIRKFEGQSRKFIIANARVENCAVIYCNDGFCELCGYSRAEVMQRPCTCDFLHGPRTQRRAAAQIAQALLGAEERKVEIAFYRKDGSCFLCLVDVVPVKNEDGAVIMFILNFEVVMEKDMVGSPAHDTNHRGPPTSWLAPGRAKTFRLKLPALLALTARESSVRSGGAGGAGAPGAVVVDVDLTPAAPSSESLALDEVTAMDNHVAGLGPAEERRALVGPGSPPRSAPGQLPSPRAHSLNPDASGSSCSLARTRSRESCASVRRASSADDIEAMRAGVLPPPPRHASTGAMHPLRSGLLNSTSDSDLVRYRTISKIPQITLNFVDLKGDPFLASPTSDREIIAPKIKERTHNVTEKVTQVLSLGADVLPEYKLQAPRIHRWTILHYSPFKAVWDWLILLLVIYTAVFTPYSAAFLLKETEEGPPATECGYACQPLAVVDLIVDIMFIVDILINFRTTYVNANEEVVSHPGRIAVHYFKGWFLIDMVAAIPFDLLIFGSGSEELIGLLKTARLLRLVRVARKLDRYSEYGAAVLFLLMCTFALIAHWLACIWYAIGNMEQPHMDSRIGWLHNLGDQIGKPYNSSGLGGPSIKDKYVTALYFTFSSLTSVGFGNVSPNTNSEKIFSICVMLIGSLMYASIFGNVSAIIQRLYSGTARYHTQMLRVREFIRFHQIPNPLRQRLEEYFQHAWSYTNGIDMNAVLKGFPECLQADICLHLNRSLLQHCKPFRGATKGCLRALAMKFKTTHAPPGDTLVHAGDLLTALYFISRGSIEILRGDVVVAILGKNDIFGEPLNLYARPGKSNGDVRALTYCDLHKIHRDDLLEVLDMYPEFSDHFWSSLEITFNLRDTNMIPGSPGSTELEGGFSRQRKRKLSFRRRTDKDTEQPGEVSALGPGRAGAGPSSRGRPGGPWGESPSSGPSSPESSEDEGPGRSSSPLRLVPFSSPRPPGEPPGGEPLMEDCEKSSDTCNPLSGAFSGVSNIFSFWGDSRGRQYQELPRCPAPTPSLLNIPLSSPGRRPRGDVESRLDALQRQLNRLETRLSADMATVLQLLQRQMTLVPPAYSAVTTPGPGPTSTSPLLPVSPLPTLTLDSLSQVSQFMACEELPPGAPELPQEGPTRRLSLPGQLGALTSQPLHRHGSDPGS

Usually IC50 stands for the point on the concentration scale where inhibition reaches its midpoint. The low end stands for greater potency, the high end for weaker potency. Usually logD stands for lipophilicity at a set pH, counting ionised and neutral species. In the case of `O=C(O)CC(CN1CC[C@@H](CCc2ccc3c(n2)NCCC3)C1)c1cccc(-n2ccnc2)c1` (mixture of isomers), the 50% inhibitory concentration (IC50) is above 31.6 µM in data set [1] and above 50.1 µM in data set [2]. Besides, the logD in the data set “physchem” stood at 1.97.
In turn, `O=C(O)C[C@@H](CN1CC[C@@H](CCc2ccc3c(n2)NCCC3)C1)c1cccc(N2CCOCC2)c1` registered a log distribution coefficient (logD) in “physchem” of 1.99.
Consider `O=C(O)C[C@H](CN1CC[C@@H](CCc2ccc3c(n2)NCCC3)C1)c1cccc(-n2ccnn2)c1`, for which the IC50 is above 31.6 µM in data set [1] and above 50.1 µM in data set [2]. This compound also displayed a logD in “physchem” of 1.75. For the same compound, in data set [3], the fraction unbound at 4 h, 1 ug/ml was 0.28.
For `Cc1nc(C)c(-c2cccc([C@H](CC(=O)O)CN3CC[C@@H](CCc4ccc5c(n4)NCCC5)C3)c2)[nH]1`, the 50% inhibitory concentration (IC50) is above 31.6 µM in data set [1] and above 50.1 µM in data set [2]. Moreover, the logD in “physchem” is 1.77. The fraction unbound at 4 h, 1 ug/ml in data set [3] is 0.53.
The compound `Cc1cnn(C)c1-c1cccc([C@H](CC(=O)O)CN2CC[C@@H](CCc3ccc4c(n3)NCCC4)C2)c1` returned a pH-dependent lipophilicity (logD) in “physchem” of 2.72.
As to `O=C(O)C[C@H](CN1CC[C@@H](CCc2ccc3c(n2)NCCC3)C1)c1cccc(C2CCOC2)c1` (stereo in doubt; 28xI1), the IC50 in data set [1] was 12.6 µM; in data set [2], 39.8 µM. In “physchem”, the logD was 2.56.
In the case of `Cc1cnn(-c2cccc([C@H](CC(=O)O)CN3CC[C@@H](CCc4ccc5c(n4)NCCC5)C3)c2)c1`, the log distribution coefficient (logD) in the data set “physchem” is 3.01. In data set [2], the half-inhibitory concentration (IC50) is 10 µM.
As for `Cc1cn(C)c(-c2cccc([C@H](CC(=O)O)CN3CC[C@@H](CCc4ccc5c(n4)NCCC5)C3)c2)n1`, the half-maximal inhibitory concentration (IC50) in data set [1] was above 31.6 µM; in data set [2] it was above 50.1 µM. For the same compound, the logD in “physchem” amounted to 2.09.
The like results for `Cc1cc(-c2cccc([C@H](CC(=O)O)CN3CC[C@@H](CCc4ccc5c(n4)NCCC5)C3)c2)[nH]n1` were, in that order, 25.1 µM, above 50.1 µM and 2.53.
For `O=C(O)C[C@H](CN1CC[C@@H](CCc2ccc3c(n2)NCCC3)C1)c1cccc(C2CCOCC2)c1`, in the data set “physchem”, the log distribution coefficient (logD) is 2.62.
For the compound `Cc1nc(C)n(-c2cccc([C@H](CC(=O)O)CN3CC[C@@H](CCc4ccc5c(n4)NCCC5)C3)c2)n1`, the values for the IC50 in data set [1] and in data set [2] were above 31.6 µM and above 50.1 µM, respectively. This compound had a pH-dependent lipophilicity (logD) in the data set “physchem” of 1.66.
On to `Cc1nncn1-c1cccc([C@H](CC(=O)O)CN2CC[C@@H](CCc3ccc4c(n3)NCCC4)C2)c1`, for which the IC50 in data set [1] was above 31.6 µM. The same compound displayed a log distribution coefficient (logD) in “physchem” of 1.77.
Take `O=C(O)C[C@H](CN1CC[C@@H](CCc2ccc3c(n2)NCCC3)C1)c1cccc(-n2cncn2)c1`: the half-inhibitory concentration (IC50) was above 31.6 µM in data set [1] and above 50.1 µM in data set [2]. The compound further had a logD in “physchem” of 1.95. Also, the fraction unbound at 4 h, 1 ug/ml in data set [3] was 0.4.
For `Cc1ccnn1-c1cccc([C@H](CC(=O)O)CN2CC[C@@H](CCc3ccc4c(n3)NCCC4)C2)c1`, the fraction unbound at 4 h, 1 ug/ml in data set [3] was 0.1.
For `O=C(O)C[C@H](CN1CC[C@@H](CCc2ccc3c(n2)NCCC3)C1)c1cccc(-n2cccn2)c1`, the IC50 is 0.794 µM in data set [1] and above 50.1 µM in data set [2]. In addition, in “physchem”, the log distribution coefficient (logD) came to 2.4.
Compound `O=C(O)C[C@H](CN1CC[C@@H](CCc2ccc3c(n2)NCCC3)C1)c1cccc(N2CCOCC2)c1` registered a pH-dependent lipophilicity (logD) in “physchem” of 2.27.
In the case of `O=C(O)C[C@H](CN1CC[C@@H](CCc2ccc3c(n2)NCCC3)C1)c1cccc(OC2COC2)c1`, the IC50 in data set [1] was above 31.6 µM; in data set [2] it was above 50.1 µM. For the same compound, the logD in “physchem” was 2.07.
`O=C(O)C[C@H](CN1CC[C@@H](CCc2ccc3c(n2)NCCC3)C1)c1cccc(Br)c1` yielded a logD in “physchem” of 3.15. In addition, the IC50 in data set [2] was 1.26 µM.
The compound `O=C(O)C[C@H](CN1CC[C@@H](CCc2ccc3c(n2)NCCC3)C1)c1cc(C2CC2)cc(N2CCOCC2)c1` displayed a pH-dependent lipophilicity (logD) in the data set “physchem” of 3.07.
`Cc1cc(C)n(-c2cc([C@H](CC(=O)O)CN3CC[C@@H](CCc4ccc5c(n4)NCCC5)C3)cc(N3CCOCC3)c2)n1` showed a log distribution coefficient (logD) in “physchem” of 2.73. Besides, in data set [2], the half-maximal inhibitory concentration (IC50) was above 63.1 µM.
